Results on 9 compounds are retold here after publication PMC7321251 (Molecules, 2020).

The target in one data set is T1, SPHK1 (Homo sapiens, UniProt Q9NYA1).
T1 construct: purchased Thermo Fisher Scientific
Put plainly: Sphingosine kinase 1 activity assay (Adapta screening system). It counts as biochemical. As to conditions: 20 μM compound; for inhibition at 20 µM: read-out: SK1 inhibition; for SK1 inhibitory effect (in words): compared with PF-543.

In a further data set the target is T2, SPHK2 (Homo sapiens, UniProt Q9NRA0).
T2 construct: purchased Thermo Fisher Scientific
T2 sequence (Q9NRA0 1-654): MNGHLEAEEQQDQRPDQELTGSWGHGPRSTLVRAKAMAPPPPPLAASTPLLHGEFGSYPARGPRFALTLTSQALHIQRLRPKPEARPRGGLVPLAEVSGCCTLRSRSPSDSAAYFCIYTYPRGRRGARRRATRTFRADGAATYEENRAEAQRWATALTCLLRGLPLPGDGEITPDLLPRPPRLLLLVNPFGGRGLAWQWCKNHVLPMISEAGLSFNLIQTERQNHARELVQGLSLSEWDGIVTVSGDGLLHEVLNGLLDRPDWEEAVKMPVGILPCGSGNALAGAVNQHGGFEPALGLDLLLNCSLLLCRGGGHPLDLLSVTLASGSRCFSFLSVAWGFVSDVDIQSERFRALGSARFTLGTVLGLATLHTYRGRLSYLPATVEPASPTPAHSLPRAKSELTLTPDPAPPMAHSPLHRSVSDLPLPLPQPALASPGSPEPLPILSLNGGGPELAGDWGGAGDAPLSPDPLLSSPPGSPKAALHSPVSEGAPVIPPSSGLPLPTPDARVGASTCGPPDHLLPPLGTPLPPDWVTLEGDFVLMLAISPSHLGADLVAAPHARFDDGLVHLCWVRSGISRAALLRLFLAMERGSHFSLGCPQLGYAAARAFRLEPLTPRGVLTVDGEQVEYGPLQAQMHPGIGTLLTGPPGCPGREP
Put plainly: Sphingosine kinase 2 activity assay (Adapta screening system). It counts as biochemical. As to conditions: 20 μM compound. As to the method:
[…]. The sphingosine kinase 1 activity assay used 0.04–0.16 ng SPHK1, 50 μM sphingosine lipid substrate in 32.5 mM HEPES pH 7.5, 0.005% BRIJ 35, 5 mM MgCl2, 0.5 mM ethylene glycol-bis(β-aminoethyl ether)-N,N,N′,N′-tetraacetic acid (EGTA). The sphingosine kinase 2 activity assay detected 35 - 140 ng SPHK2, 50 μM sphingosine lipid substrate in 32.5 mM HEPES pH 7.5, 0.5 mM EGTA, 1.5 mM MgCl2.

For another data set, the target named is SK2. Details: method as in PMID 21940750. The following applies: cited from earlier work.
The nature of data set [1]: Liver microsomal stability, human (HLM). It counts as in vitro ADME. The following applies: human liver microsomes, NADPH. The procedure: (§1) Microsomal incubations were conducted in triplicate in 0.1 M potassium phosphate buffer (pH 7.4) in a clean 1.5 mL eppendorf tube. […] HLM was added and the mixture was pre-incubated at 37 °C in a shaking incubator at approximately 350 rpm for 5 min under Thermo mixer (Eppendorf., Hamburg, Germany). Reactions were initiated by the addition of 1 mM NADPH and were then quenched by adding 40 µL of ice-cold acetonitrile containing 10 µM chlorproamide (CPP) as an internal standard at 0, 30 min. The incubation mixtures were then centrifuged at 15,000× g for 5 min at 4 °C. A 2 µL aliquot of the supernatant was directly injected into the LC-MS/MS system. The LC-MS/MS system consisted of the Nexera XR HPLC system (Shimadzu Co., Kyoto, Japan) coupled to the TSQ Vantage triple quadrupole mass spectrometer equipped with Xcalibur version 1.1.1 (Thermo Fisher Scientific Inc., Waltham, MA, USA).

Data set [2] is described as follows: Liver microsomal stability, mouse (MLM). It counts as in vitro ADME. The following applies: mouse liver microsomes, NADPH. The procedure:
[Worded in the source for another species; this species is reported under the same test.] as §1

Data set [3] can be described thus: Liver microsomal stability, rat (RLM). It counts as in vitro ADME. As to conditions: rat liver microsomes, NADPH. The procedure:
[Worded in the source for another species; this species is reported under the same test.] as §1

Data set [4] in a line: Liver microsomal stability, dog (DLM). It counts as in vitro ADME. As to conditions: dog liver microsomes, NADPH. As to the method:
[Worded in the source for another species; this species is reported under the same test.] as §1

T1 sequence (Q9NYA1 whole entry): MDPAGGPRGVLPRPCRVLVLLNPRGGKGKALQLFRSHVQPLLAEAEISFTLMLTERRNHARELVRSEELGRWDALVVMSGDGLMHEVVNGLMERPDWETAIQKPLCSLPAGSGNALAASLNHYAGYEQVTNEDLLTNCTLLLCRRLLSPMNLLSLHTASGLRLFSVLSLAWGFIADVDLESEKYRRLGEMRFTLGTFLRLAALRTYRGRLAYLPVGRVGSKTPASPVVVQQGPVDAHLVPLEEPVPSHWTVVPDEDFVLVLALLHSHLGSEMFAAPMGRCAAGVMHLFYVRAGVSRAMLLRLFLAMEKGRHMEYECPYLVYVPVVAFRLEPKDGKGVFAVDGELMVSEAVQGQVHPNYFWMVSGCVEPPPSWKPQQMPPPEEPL

Turning to `O=S(=O)(Cc1cccc(OCc2ccc(CN3CCC[C@@H]3CO)cc2)c1)c1ccccc1` [compound 2, (R)-(1-(4-((3-((Phenylsulfonyl)methyl)phenoxy)methyl)benzyl)pyrrolidin-2-yl)methanol], the inhibition at 20 µM at SPHK1 was determined as 100%.

For `O=S(=O)(Cc1cc(F)cc(OCc2ccc(CN3CCC(O)CC3)cc2)c1)c1ccccc1` [compound 7, 1-(4-((3-Fluoro-5-((phenylsulfonyl)methyl)phenoxy)methyl)benzyl)piperidin-4-ol], at SPHK1, the “SK1 inhibitory effect (in words)” value is “reduced”.

In the case of `O=S(=O)(Cc1cc(O)cc(OCc2ccc(CN3CCC[C@@H]3CO)cc2)c1)c1ccccc1` [compound 8, (R)-3-((4-((2-(Hydroxymethyl)pyrrolidin-1-yl)methyl)benzyl)oxy)-5-((phenylsulfonyl)methyl)phenol], on SPHK2, the “SK2 inhibitory effect (in words)” value is recorded as “showed an inhibitory effect against SK2 alone”.

As to `O=S(=O)(Cc1cc(O)cc(OCc2ccc(CN3CCC(O)CC3)cc2)c1)c1ccccc1` [compound 10, 1-(4-((3-Hydroxy-5-((phenylsulfonyl)methyl)phenoxy)methyl)benzyl)piperidin-4-ol], the “SK1 inhibitory effect (in words)” value at SPHK1 is reported as “reduced”.

For the compound `CCCCCCCCc1ccc(CC[C@@](N)(CO)COC)cc1` [ROME, (R)-FTY720-OMe], the Ki at SK2 is 16 µM.

For `O=S(=O)(Cc1cc(F)cc(OCc2ccc(CN3CC[C@H](O)C3)cc2)c1)c1ccccc1` [compound 6, (S)-1-(4-((3-fluoro-5-((phenylsulfonyl)methyl)phenoxy)methyl)benzyl)pyrrolidin-3-ol], at SPHK1, the inhibition at 20 µM came out at 100%.

Turning to `O=S(=O)(Cc1cc(F)cc(OCc2ccc(CN3CCC[C@@H]3CO)cc2)c1)c1ccccc1` [compound 5, (R)-(1-(4-((3-Fluoro-5-((phenylsulfonyl)methyl)phenoxy)methyl)benzyl)pyrrolidin-2-yl)methanol], the “HLM microsomal stability (% remaining during 30 min)” value in data set [1] is on record as 7.6 % remaining. Besides, the “MLM microsomal stability (% remaining during 30 min)” value in data set [2] is given as 9.8 % remaining. Besides, the “RLM microsomal stability (% remaining during 30 min)” value in data set [3] was found to be 6.8 % remaining. Also, the “DLM microsomal stability (% remaining during 30 min)” value in data set [4] turned out to be 5.5 % remaining. The inhibition at 20 µM at SPHK1 was 100%.

Take `O=S(=O)(Cc1cccc(OCc2ccc(CN3CCC(O)CC3)cc2)c1)c1ccccc1` [compound 4, 1-(4-((3-((Phenylsulfonyl)methyl)phenoxy)methyl)benzyl)piperidin-4-ol]: on SPHK1, the “SK1 inhibitory effect (in words)” value is on record as “reduced”.

Consider `O=S(=O)(Cc1cccc(OCc2ccc(CN3CC[C@H](O)C3)cc2)c1)c1ccccc1` [compound 3, (S)-1-(4-((3-((Phenylsulfonyl)methyl)phenoxy)methyl)benzyl)pyrrolidin-3-ol], for which, at SPHK1, the inhibition at 20 µM was determined as 100%.
